Results published in patent US6444696B1, “Pyrazole derivatives P38 MAP kinase inhibitors” (Syntex (U.S.A.) LLC, priority 1998, dated 2002).
Counter-ions that a name gives are not always drawn.

melting point [°C]	SMILES
116.6 to 118.6	Nc1c(C(=O)c2cccc(CN3CCCCC3)c2)cnn1-c1ccc(F)cc1F [compound 86, 5-Amino-1-(2,4-difluorophenyl)-4-[3-(1-piperidinylmethyl)benzoyl]pyrazole]
> 300	Nc1c(C(=O)c2cccc(-c3cccnc3)c2)cnn1-c1ccc(S(N)(=O)=O)cc1 (as salt: HCl) [compound 68, 5-amino-1-(4-sulfamoylphenyl)-4-[3-(pyridin-3-yl)benzoyl]pyrazole]
153.4 to 153.7	Nc1c(C(=O)c2cccc(CCc3cccnc3)c2)cnn1-c1ccc(F)cc1F [compound 91, 5-amino-1-(2,4-difluorophenyl)-4-[3-(3-pyridylethyl)benzoyl]pyrazole]
144.2 to 145.1	Nc1c(C(=O)c2cccc(OCCN3CCOCC3)c2)cnn1-c1c(Cl)cccc1Cl [compound 98, 5-amino-1-(2,6-dichlorophenyl)-4-[3-(2-morpholin-4-ylethoxy)benzoyl]pyrazole]
130.8 to 135.1	Nc1c(C(=O)c2cccc(OCCN3CCOCC3)c2)cnn1-c1ccccc1F [compound 97, 5-amino-1-(2-fluorophenyl)-4-[3-(2-morpholin-4-ylethoxy)benzoyl]pyrazole]
225.2 to 230.1	CC(C)NC(=O)Oc1cccc(C(=O)c2cnn(-c3ccc(F)cc3)c2N)c1
141.5 to 145.5	Nc1c(C(=O)c2cccc(CN3CCC(O)CC3)c2)cnn1-c1ccc(F)cc1F [compound 133]

The remaining lines, values behind:

SMILES	melting point [°C]
CC1(C)OCC(COc2cccc(C(=O)c3cnn(-c4ccc(F)cc4)c3N)c2)O1 (stereo in doubt) [compound 170, 5-amino-1-(4-fluorophenyl)-4-{3-[(2,2-dimethyl-1,3-dioxolan-4(S)-yl)methoxy]benzoyl}pyrazole]	78.3 to 80
Nc1c(C(=O)c2cccc(OC[C@@H]3COC(=O)O3)c2)cnn1-c1ccc(F)cc1 [compound 171, 5-amino-1-(4-fluorophenyl)-4-{3-[(1,3-dioxolan-2-on-4(R)-yl)methoxy]benzoyl}pyrazole]	144.3 to 144.9
Nc1c(C(=O)c2cccc(C#CC3(O)CCCC3)c2)cnn1-c1ccc(F)cc1F [compound 94, 5-amino-1-(2,4-difluorophenyl)-4-[3-{2-(1-hydroxycyclopentyl)ethynyl}benzoyl]pyrazole]	176.8 to 177.1
CCC1(C)OC[C@H](COc2cccc(C(=O)c3cnn(-c4ccc(F)cc4)c3N)c2)O1 (stereo partly drawn) [compound 174, 5-amino-1-(4-fluorophenyl)-4-{3-[(2-methyl-2-ethyl-1,3-dioxolan-4(S)-yl)methoxy]benzoyl}pyrazole]	81.1 to 83
Nc1c(C(=O)c2cccc(C#Cc3cccnc3)c2)cnn1-c1ccc(F)cc1F [compound 88, 5-amino-1-(2,4-difluorophenyl)-4-[3-(3-pyridylethynyl)benzoyl]pyrazole]	183.5 to 184
Cc1ccccc1-n1ncc(C(=O)c2cccc(C(O)CO)c2)c1N (stereo not drawn) [compound 109, 5-amino-1-(2-methylphenyl)-4-[3-(1,2-dihydroxyethyl)benzoyl]pyrazole]	83 to 85.5
Nc1c(C(=O)c2cccc(CCCN3CCCCC3)c2)cnn1-c1ccc(F)cc1 (as salt: HCl) [compound 32, 5-amino-1-(4-fluorophenyl)-4-[3-(3-piperidin-1-ylpropyl)benzoyl]pyrazole]	227.1 to 277.7
COC(=O)OCC(COc1cccc(C(=O)c2cnn(-c3ccc(F)cc3)c2N)c1)OC(=O)OC (stereo in doubt) [compound 168, 5-amino-1-(4-fluorophenyl)-4-[3-{2(S),3-(dimethoxycarbonyloxy)propoxy}benzoyl]pyrazole]	62 to 65
CCNC(=O)Oc1cccc(C(=O)c2cnn(-c3ccc(F)cc3)c2N)c1	201.2 to 202.8
Nc1c(C(=O)c2cccc(CN3CCOCC3)c2)cnn1-c1ccc(F)cc1F [compound 131]	127.3 to 128.5
Nc1c(C(=O)c2cccc(OCC(=O)O)c2)cnn1-c1ccc(F)cc1 [compound 119]	215.9 to 216.2
